Reference: PMC10647704 (Molecules, 2023)
Values after ≈ are worked out from the molar mass of the structure shown. Read-outs that look alike come from different tables or passages of the source.

Columns and labels:
[1] = test system: human epidermoid carcinoma cells KB-3-1; assay: MTT cell viability assay in KB-3-1 cells; assay type: cell-based; details: for IC50: 24 h incubation, 48 h of treatment; for fungal selectivity (ratio of the IC50 in KB-3-1 cells to the IC50 in S1 cells): KB-3-1 vs C. albicans S1
Protocol: MTT assays were then performed to assess the effect of the test compounds on human epidermoid carcinoma cells KB-3-1 (24 h incubation).
The cell viability assay was performed in human epidermoid carcinoma cells KB-3-1. Initially, 5 × 10^3 cells were seeded into each well in a 96-well plate. […] After 48 h of treatment, 20 µL of MTT solution (5 mg/mL) was added to each well and allowed to incubate for 3.5 h. Subsequently, DMSO was added to each well upon removal of the MTT solution. The Abs570nm values were then measured using an accuSkanTM GO UV/VIS Microplate Spectrophotometer (Fisher Sci., Fair Lawn, NJ, USA).

[2] = test system: C. albicans S1 (FLU-sensitive); assay: Turbidity assay (MIC and IC50) in C. albicans S1; assay type: cell-based
[3] = target: yeast plasma membrane H+-ATPase (Pma1p) (Candida albicans, UniProt P28877); assay: Medium acidification assay in C. albicans S1; assay type: cell-based; details: change in pH at 30 min, highest test concentration 30 µM, mean ± SEM of three experiments
[4] = test system: C. albicans S1 (FLU-sensitive); assay: Colorimetric resazurin assay (MIC) in C. albicans S1; assay type: cell-based; details: read-out: MIC, colorimetric assay
[5] = test system: C. albicans S1; assay: Mouse model of vulvovaginal candidiasis (VVC); details: for histopathology of vaginal tissue (H&E): day 6, infected and treated mice; for Log CFU/100 μL / Remaining C. albicans S1 Compared to Control (100%): vaginal lavage day 6, intravaginal once daily days 3-5, CHB 12.5 mg/kg, MICO 2% cream; for expression of MPO in vaginal tissue (IHC): day 6, compared to 6th day infected and vehicle groups; for PMN counts of vaginal tissues: day 6, compared to control and vehicle group; for gross markers of the health of the mice: intravaginal suspension, over the course of the study
[6] = target: Na+, K+-ATPase (purified from pig kidney outer medulla) (Sus scrofa, UniProt P05024); assay: Na+,K+-ATPase activity assay; assay type: biochemical; details: test concentrations similar to the MIC concentrations; micromolar range; prevented by 5 mM GSH
[7] = test system: reconstructed human epidermis; assay: In vitro skin irritation test on reconstructed human epidermal model (EpiDerm, OECD TG 439); assay type: cell-based
Protocol: The in vitro skin irritation test was performed using MatTek Corporation’s Reconstructed Human Epidermal Model EpiDerm™ following the manufacturer’s instructions, which fulfills the criteria set forth in the Organization for Economic Co-operation and Development.
Briefly, we applied either 30 µL of CHB4 or CHB6, PBS, 0.1% DMSO or 30 µL of 1% Triton-X100 (positive control for irritation). All plates were then incubated in a humidified environment for an additional 35 ± 1 min at 37 ± 1 °C, 5 ± 1% CO2, and 90% ± 10% relative humidity (RH). Once the 1 h incubation period was completed for the dosed tissues, all plates were removed from the incubator and placed in a sterile hood. The tissues were then rinsed 15 times with sterile PBS. The blotted tissue inserts were then incubated for 42 ± 2 h after which time the cell viability was determined using the MTT assay as described.

[8] = test system: breast cancer cell line MCF-7; parameters: method as in PMID 31683558; details: breast cancer cell line MCF-7 ref 23; cited from earlier work
[9] = Homo sapiens, KB 3-1, KB-3-1 cells, read-out: MTT Assay IC50 KB-3-1 Cells
[10] = Candida albicans, 24 h; read-out: MIC, turbidity assay
[11] = Candida albicans, 48 h; read-out: MIC, turbidity assay
[12] = Candida albicans; Abs600nm at 48 h; read-out: Turbidity Assay IC50 C. albicans S1
[13] = Candida albicans, C. albicans S1, 24 h, resazurin
[14] = Candida albicans, C. albicans S1, 48 h, resazurin
[15] = Abs600nm at 48 h; read-out: Turbidity Assay IC50 C. albicans S1
[16] = C. albicans S1, 24 h; for FLU the lowest concentration causing 70% decrease in turbidity; read-out: MIC, turbidity assay
[17] = C. albicans S1, 48 h; for FLU the lowest concentration causing 70% decrease in turbidity; read-out: MIC, turbidity assay
[18] = Candida albicans, 48 h, Abs600nm at 48 h; read-out: Turbidity Assay IC50 C. albicans S1
[19] = read-out: IC50MA (medium acidification)
[20] = Homo sapiens, KB 3-1, read-out: MTT Assay IC50 KB-3-1 Cells, KB-3-1 cells
[21] = Candida albicans, 24 h, read-out: MIC, turbidity assay
[22] = Candida albicans, 48 h, read-out: MIC, turbidity assay
[23] = Candida albicans, 48 h, read-out: Turbidity Assay IC50 C. albicans S1
[24] = KB-3-1 cells, read-out: MTT Assay IC50 KB-3-1 Cells

yeast plasma membrane H+-ATPase (Pma1p), sequence (P28877 whole entry): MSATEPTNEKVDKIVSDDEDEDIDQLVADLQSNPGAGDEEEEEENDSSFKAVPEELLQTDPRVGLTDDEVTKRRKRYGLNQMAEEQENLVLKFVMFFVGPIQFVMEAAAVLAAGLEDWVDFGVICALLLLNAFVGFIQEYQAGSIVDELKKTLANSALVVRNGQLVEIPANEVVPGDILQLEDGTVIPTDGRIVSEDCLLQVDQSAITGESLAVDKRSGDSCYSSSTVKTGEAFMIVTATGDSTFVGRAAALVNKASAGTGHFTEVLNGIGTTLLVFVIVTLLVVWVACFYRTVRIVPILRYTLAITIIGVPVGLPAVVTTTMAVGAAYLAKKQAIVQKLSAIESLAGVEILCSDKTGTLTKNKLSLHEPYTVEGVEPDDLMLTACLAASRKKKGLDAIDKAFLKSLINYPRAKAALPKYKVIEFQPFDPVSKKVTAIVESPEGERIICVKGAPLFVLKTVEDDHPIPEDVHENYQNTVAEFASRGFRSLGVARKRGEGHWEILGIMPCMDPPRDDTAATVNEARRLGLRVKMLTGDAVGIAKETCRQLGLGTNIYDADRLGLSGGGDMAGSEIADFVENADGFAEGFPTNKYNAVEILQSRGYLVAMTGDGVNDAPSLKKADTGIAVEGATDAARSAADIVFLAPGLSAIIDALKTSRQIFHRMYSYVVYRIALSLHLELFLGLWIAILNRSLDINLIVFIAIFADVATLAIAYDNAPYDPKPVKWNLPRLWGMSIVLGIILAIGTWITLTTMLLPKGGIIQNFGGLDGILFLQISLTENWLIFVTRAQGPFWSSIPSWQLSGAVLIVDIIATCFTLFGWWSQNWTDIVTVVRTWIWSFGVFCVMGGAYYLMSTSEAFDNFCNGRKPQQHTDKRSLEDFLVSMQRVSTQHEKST

Row | Compound | IC50 [1, 9] [µM] | MIC [2, 10] [µM] | MIC [2, 11] [µM] | IC50 [2, 12] [µM] | IC50 ([3]; IC50MA (medium acidification)) [µM] | MIC [4, 13] [µM] | MIC [4, 14] [µM] | MIC [2, 16] [µM] | MIC [2, 17] [µM] | IC50 [3, 19] [µM] | histopathology of vaginal tissue (H&E) [5] | Log CFU/100 μL [5] [Log CFU/100 μL] | Remaining C. albicans S1 Compared to Control (100%) [5] [%] | IC50 [1, 20] [µM] | MIC [2, 21] [µM] | MIC [2, 22] [µM] | IC50 [2, 23] [µM] | inhibitory activity towards the Na+, K+-ATPase [6] | MIC ([4]; Candida albicans, 24 h) [µM] | MIC ([4]; Candida albicans, 48 h) [µM] | further results
1 | C[C@@H]1[C@@H](n2[se]c3ccccc3c2=O)C[C@H]2C[C@@H]1C2(C)C [CHB1] | 28.1 ± 1.5 | 12.5 (≈ 4.18 µg/mL) | 12.5 (≈ 4.18 µg/mL) | 7.3 ± 0.1 | > 30 | 12.5 (≈ 4.18 µg/mL) | 6.3 (≈ 2.11 µg/mL) | – | – | – | – | – | – | – | – | – | – | – | – | – | –
2 | OC(Cn1cncn1)(Cn1cncn1)c1ccc(F)cc1F [FLU, fluconazole, reference compound] | > 1000 | 25 (≈ 7.66 µg/mL) | 25 (≈ 7.66 µg/mL) | – | – | – | – | 25.0 (≈ 7.66 µg/mL) | 25.0 (≈ 7.66 µg/mL) | > 30 | – | – | – | – | – | – | – | – | – | – | IC50 [2, 15]: 6.01 ± 0.1 µM; IC50 [2, 18]: ~6 µM
3 | Clc1ccc(COC(Cn2ccnc2)c2ccc(Cl)cc2Cl)c(Cl)c1 (centres unmarked) [Miconazole (MICO), miconazole, reference compound] | – | – | – | – | – | – | – | – | – | – | slight epithelial distress | 4.470 | 6.950 | – | – | – | – | – | – | – | –
4 | C[C@H]1CC[C@@H]2[C@H]([C@@H]1n1[se]c3ccccc3c1=O)C2(C)C [CHB4] | – | – | – | – | – | – | – | – | – | 13.8 ± 1.1 | slight epithelial distress | 4.448 | 6.607 | 17.9 ± 3.1 | 12.5 (≈ 4.18 µg/mL) | 12.5 (≈ 4.18 µg/mL) | 7.7 ± 0.1 | possess inhibitory activity | 6.3 (≈ 2.11 µg/mL) | 12.5 (≈ 4.18 µg/mL) | fungal selectivity (ratio of the IC50 in KB-3-1 cells to the IC50 in S1 cells) [1]: 2.3; skin irritation ([7]; test concentrations up to 100 µM): no skin irritation; expression of MPO in vaginal tissue (IHC) [5]: decrease; PMN counts of vaginal tissues [5]: less PMN counts compared to control and vehicle group; gross markers of the health of the mice [5]: without affecting any gross markers of the health of the mice
5 | CC(C)[C@@H]1CC[C@@H](C)C[C@H]1n1[se]c2ccccc2c1=O [CHB6, (−)-N-(1R,2S,5R)-menthyl-1,2-benzizoselenazol-3(2H)-one] | – | – | – | – | – | – | – | – | – | > 30 | slight epithelial distress | 3.655 | 1.064 | 48.5 ± 5.9 | 3.1 (≈ 1.04 µg/mL) | 3.1 (≈ 1.04 µg/mL) | 1.8 ± 0.1 | possess inhibitory activity | 3.1 (≈ 1.04 µg/mL) | 3.1 (≈ 1.04 µg/mL) | fungal selectivity (ratio of the IC50 in KB-3-1 cells to the IC50 in S1 cells) [1]: 26.9; skin irritation ([7]; test concentrations up to 50 µM): no skin irritation; IC50 [8]: 11.9 ± 0.2 µM; expression of MPO in vaginal tissue (IHC) [5]: decrease; PMN counts of vaginal tissues [5]: less PMN counts compared to control and vehicle group; gross markers of the health of the mice [5]: without affecting any gross markers of the health of the mice
6 | O=c1c2ccccc2[se]n1-c1ccccc1 [EB, Ebselen, reference compound] | 89.7 | 25 (≈ 6.85 µg/mL) | 25 (≈ 6.85 µg/mL) | – | – | 25 (≈ 6.85 µg/mL) | 25 (≈ 6.85 µg/mL) | 25.0 (≈ 6.85 µg/mL) | 25.0 (≈ 6.85 µg/mL) | – | – | – | – | – | – | – | – | possess inhibitory activity | – | – | IC50 [1, 24]: 89.7 ± 3.42 µM; IC50 [2, 15]: 17.1 ± 1.01 µM; IC50 [2, 18]: ~17 µM; MIC ([4]; C. albicans S1, 24 h, resazurin): 25.0 µM (≈ 6.85 µg/mL); MIC ([4]; C. albicans S1, 48 h, resazurin): 25.0 µM (≈ 6.85 µg/mL)
7 | C[C@H]1[C@H](n2[se]c3ccccc3c2=O)C[C@@H]2C[C@H]1C2(C)C [CHB2] | 25.5 ± 1.9 | 12.5 (≈ 4.18 µg/mL) | 12.5 (≈ 4.18 µg/mL) | 7.6 ± 0.1 | > 30 | 12.5 (≈ 4.18 µg/mL) | 12.5 (≈ 4.18 µg/mL) | – | – | – | – | – | – | – | – | – | – | – | – | – | –
8 | C[C@@H]1C[C@H]2[C@@H](C[C@H]1n1[se]c3ccccc3c1=O)C2(C)C [CHB5] | > 90 | 25 (≈ 8.36 µg/mL) | 12.5 (≈ 4.18 µg/mL) | 7.5 ± 0.1 | > 30 | 12.5 (≈ 4.18 µg/mL) | 25 (≈ 8.36 µg/mL) | – | – | – | – | – | – | – | – | – | – | – | – | – | IC50 [1, 24]: 94.1 ± 4.7 µM
9 | CC1(C)C2CCC(Cn3[se]c4ccccc4c3=O)C1C2 (single isomer, unassigned; (-)) [CHB3] | – | – | – | – | – | – | – | 25.0 (≈ 8.36 µg/mL) | 25.0 (≈ 8.36 µg/mL) | > 30 | – | – | – | > 60 | 25 (≈ 8.36 µg/mL) | 25 (≈ 8.36 µg/mL) | 18.1 ± 0.2 | – | 12.5 (≈ 4.18 µg/mL) | 25 (≈ 8.36 µg/mL) | IC50 ([1]; read-out: MTT Assay IC50 KB-3-1 Cells, KB-3-1 cells): 65.7 ± 4.4 µM
